# Experimental data reported in patent US20050143453A1, “Selective preventing and therapeutic agents for progressive lesion after organic damage” (priority 2000, published 2005).
# Like-named read-outs stand apart in the source and are kept apart here.
# How the values were obtained:
# [1] = tested on: induction of effector macrophage by contact of human PBMC with lipopolysaccharide; assay: SPFC production by LPS stimulation (Test Example 1); format: cell-based
# Method: A suppressive effect of the test compound to effector macrophage induction was investigated in vitro by an induction and production system of spontaneous plaque-forming cell (SPEC) mentioned in M. Ishibashi, S. Jiang, Y. Kokado, S. Takahara, T. Sonoda: Immunopharmacologic effects of immunosuppressive agents explored by a new effector generation assay. Transplant Proc., 21: 1854-1858, 1989.
# Heparin-added peripheral blood (40 ml) was collected from a healthy person and the same amount of EDTA-added physiological saline was added. PBMC were obtained by a specific gravity centrifugal method using Ficoll-Hypaque (manufactured by Pharmacia Fine Chemicals). Self-plasma was added thereto and allowed to stand at 37° C. for 10 minutes and platelets were removed by a low-speed centrifugal separation. RPMI 1640 liquid containing 15 μg/ml of gentamicin and 2 mM L-glutamine was used for washing the PBMC. Concentration of the PBMC was adjusted to 2×10^6 cells/ml using the same liquid.
# Each 200 μl of a solution containing 2×10^6 PBMC/ml prepared in the step 1 were added to each well of a micro test plate, lipopolysaccharide (hereinafter, abbreviated as LPS) was diluted with the RPMI 1640 liquid to make the final concentration 80 μg/ml and the said LPS solution was added to each well of the 200 μl-micro test plate. Further, each 50 μl of human serum of type AB were added so as to make the concentration 10% by weight. Two such micro test plates were prepared.
# After that, to the above two micro test plates was added a solution where the test compound was diluted with 1% by weight of DMSO so as to make the concentration of the test compound 1 μM. Similarly were prepared each two micro test plates where the final concentrations of the test compound were 0.1 μM, 0.01 μM and 0.001 μM.
# The culture liquid prepared as such was incubated for 6 days at 37° C. in 5% CO2.
# The effector macrophage induced after the incubation was all recovered using a rubber-policeman (spatula made of rubber). A Hanks solution containing 5 μg/ml of gentamicin was used for washing and, using the said solution, there was prepared a solution where the concentration of the induced effector macrophage was 2×10^6 per ml.
# With regard to autologous erythrocytes, those which were preserved at 4° C. in a phosphate physiological saline (hereinafter, abbreviated as PBS) to which 0.1% by weight of AB serum and autologous erythrocytes obtained from PBMC separation were used were used. The preserved autologous erythrocytes were washed for three times with a Hanks solution to which no serum was added and made into a solution of 4% by weight concentration using the said Hanks solution. Poly-L-lysine was added to a Terasaki plate and washed with PBS every 20 minutes at 37° C., the above-mentioned autologous erythrocyte solution was added thereto immediately, the mixture was allowed to stand at 37° C. for 30 minutes and the erythrocytes which were not adhered to the plate were removed to prepare a Terasaki plate to which self-erythrocytes in a monolayer were adhered.
# A Hanks solution (4 μl) was added to the said Terasaki plate, 4 μl of a solution containing the induced effector macrophage obtained in the step 3 were added thereto and the mixture was allowed to stand at 37° C. for 2 hours. After completion of the reaction, it was fixed by formalin. Numbers of the produced SPFC which were adhered or phagocytized were measured.
# A mean SPFC production number was calculated from the measured values of SPFC production when the concentration of the test compound was the same. SPFC production number per 1×10^6 of the induced effector macrophage was calculated and, from the recovered induced effector macrophage numbers, total SPFC production amount (S2) was calculated.
# As a control, no test compound was added and the same operation as above was carried out to calculate the total SPFC production amount (S1). […]
# [2] = tested on: induction of effector macrophage by contact of human PBMC with mitomycin-treated human PBMC (allo-MLC); assay: SPFC production by allo-MLC stimulation (Test Example 2); format: cell-based; conditions: for functional group (selective suppression of SPFC production by allo-MLC or LPS stimulation): summary of Table 1
# [3] = tested on: obstruction-released kidney of male SD rats; assay: Obstruction release model after complete obstruction of unilateral ureter for 14 days (UUO/Release, Test Example 3); format: in vivo, rat; design: key to Suppressive Effect to Glomerular Lesion / Suppressive Effect to Lesion of Tubulointerstitial Tissue: ∘: available; Δ: somewhat available; x: not available; conditions: for Rate of Cases where Glomerular Lesion was Suppressed / Serum Creatinine level (mg/dl) on the 7th Day from Release of Obstruction / Weight of Kidney (g) on the 7th Day from Release of Obstruction / Rate of Cases where tubulointerstitial Lesion was Suppressed: Table 2
# Method: Obstruction Release Model after Complete Obstruction of Unilateral Ureter for 14 Days
# Experimental models were prepared by a method devised and established by Ishibashi (Michio Ishibashi, et al.: The Japanese Journal of Nephrology, 42: 248, 2000) using male SD rats of 8-9 weeks age and about 280 g. Thus, the rat was laparotomized under anesthetization with ether and ureter was ligated with 7-0 Nylon at the height of the margin of lower pole of left kidney to close the abdomen. On the 14th day after obstruction, the obstruction was released and urinary passage was reconstructed using a cuff. Thus, after 14 days, the part of ligated obstructed ureter was resected, a polyethylene tube of 25 gages (manufactured by Nippon Sherwood) was used as a cuff and inserted into and retained at the lumen from the cut end of the lower normal ureter, then the cuff was also retained in the expanded upper ureter and each of them was ligated and fixed by 7-0 Nylon to reconstruct the urinary passage. At the same time, the right kidney at the opposite side was excised. After the release of the obstruction, body weight was measured, blood was collected on the 2nd day, 5th day and 7th day from the release to measure serum creatinine, then the rat was sacrificed under anesthetization and the left obstruction-released kidney was excised. With regard to the excised kidney, there were carried out measurement of weight of the kidney and pathological test for the kidney.
# An in vivo biological test was carried out for the γ-lactone derivatives according to the present invention using the above models. With regard to the test compound, bulk powder of the test compound was dissolved in an aseptic physiological saline together with gum arabic and the final concentration of gum arabic was 5%(vol/vol). The concentration of the test compound 30 mg/ml was suspended in 5% gum arabic-saline solution. The preparation was subcutaneously injected at the dose of 30 mg/kg every day throughout the experiment. With regard to the test compound, there were used (9-1), (4-2) and (7-3) as the compounds of group I suppressing the SPFC production by allo-MLC stimulation, i.e., the compounds which selectively suppress the induction of effector macrophage in the presence of allo-MLC while there was used (3-2) as the compound of group II suppressing the SPFC production by LPS stimulation, i.e., the compounds which selectively suppress the induction of effector macrophage in the presence of LPS.
# In the Table, “functional classification” of the compound means the above group I, group II and group III. “Compound” means the compound bearing each of the above-mentioned compound numbers. The fact whether glomerular lesion was suppressed was judged by the ameriolation of the lesions such as thickness of wall of Bowman's capsule, hyperplasia of mesangial cells and glomerular sclerosis. The fact whether lesion of tubulointerstitial tissue was suppressed was judged by the ameriolation of the lesions such as thickness of basement membrane of tubules, cellular infiltration and fibrosis of interstitial tissue. In the table, “control” is the result when the same test as above was carried out using 5% gum arabic only which is a solvent.
# In order to further confirm whether the preventive and therapeutic effect of the γ-lactone derivatives of the present invention to the target cell damage is selective, (7-3) of the group I and (6-1) of the group II were used as test compounds and they were subcutaneously injected at the dose of 30 mg/kg every day and compared with the control group. With regard to the control group, only 5% gum arabic which is a solvent was used and the same test as above was carried out.
# [4] = 144 h, human PBMC with LPS 80 μg/ml, incubated 6 days, Table 1, read-out: SPFC Production Inhibiting Concentration by LPS Stimulation (μM: IC50)
# [5] = Homo sapiens, Table 5, read-out: Inhibiting Concentration for SPEC Production by LPS Stimulation (μM: IC50)
# [6] = 144 h, human PBMC with mitomycin-treated human PBMC, incubated 6 days, Table 1, read-out: SPFC Production Inhibiting Concentration by all-MLC Stimulation (μM: IC50)
# [7] = Homo sapiens, Table 5, read-out: Inhibiting Concentration for SPEC Production by allo-MLC Stimulation (μM: IC50)
# [8] = 30 mg/kg subcutaneously every day
# [9] = Experimental Model of Rat: UUO/Release
# [10] = Experimental Model of Rat: UUO/Release and CPN
smiles,measurement,setting,value
"CC(OC(=O)[C@@]1(Oc2ccc(F)cc2)CCC(=O)O1)c1ccc2ccccc2c1 (mixture of isomers) [(3-2), (RS)-(+)-α-methyl-2-naphthalene-methyl 2-(4-fluorophenoxy)-5-oxotetrahydrofuran-2-carboxylate]",IC50,[1]; [4],1 µM
same,IC50,[1]; [5],1 µM
same,IC50,[2]; [6],> 1 µM
same,IC50,[2]; [7],> 1 µM
same,functional group (selective suppression of SPFC production by allo-MLC or LPS stimulation),[2],group II
same,selectivity of the suppressive effect on renal lesions,[3]; [8],selective suppressive effect
same,suppression of glomerular lesion,[3]; [8],suppressed the glomerular lesion only
same,suppression of lesion of tubulointerstitial tissue,[3]; [8],did not suppress
same,Rate of Cases where Glomerular Lesion was Suppressed,[3]; [8],100% (5/5)
same,Serum Creatinine level (mg/dl) on the 7th Day from Release of Obstruction,[3]; [8],2.0 ± 0.4 mg/dL
same,Weight of Kidney (g) on the 7th Day from Release of Obstruction,[3]; [8],4.36 ± 0.95 g
same,Suppressive Effect to Glomerular Lesion,[3]; [9],∘
same,Suppressive Effect to Lesion of Tubulointerstitial Tissue,[3]; [9],x
"CC(OC(=O)[C@]1(Oc2ccc(F)cc2)CCC(=O)O1)c1ccc2ccccc2c1 (mixture of isomers) [(4-2), (RS)-(+)-α-methyl-2-naphthalene-methyl 2-(4-fluorophenoxy)-5-oxotetrahydrofuran-2-carboxylate]",IC50,[1]; [4],> 1 µM
same,IC50,[1]; [5],> 1 µM
same,IC50,[2]; [6],0.01 µM
same,IC50,[2]; [7],0.01 µM
same,functional group (selective suppression of SPFC production by allo-MLC or LPS stimulation),[2],group I
same,selectivity of the suppressive effect on renal lesions,[3]; [8],selective suppressive effect
same,Rate of Cases where Glomerular Lesion was Suppressed,[3]; [8],50% (2/4)
same,Rate of Cases where tubulointerstitial Lesion was Suppressed,[3]; [8],100% (4/4)
same,Serum Creatinine level (mg/dl) on the 7th Day from Release of Obstruction,[3]; [8],2.7 ± 0.3 mg/dL
same,Weight of Kidney (g) on the 7th Day from Release of Obstruction,[3]; [8],3.94 ± 0.32 g
same,Suppressive Effect to Glomerular Lesion,[3]; [9],Δ
same,Suppressive Effect to Lesion of Tubulointerstitial Tissue,[3]; [9],∘
"CCOC(=O)C1(Oc2ccc(F)cc2)CCC(=O)O1 (racemic) [Conventional Compound, ethyl 2-(4-fluorophenoxy)-5-oxo-2-tetrahydrofurancarboxylate, reference compound]",IC50,[1]; [4],0.1 µM
same,IC50,[1]; [5],0.1 µM
same,IC50,[2]; [6],0.1 µM
same,IC50,[2]; [7],0.1 µM
same,selectivity of the suppressive effect on renal lesions,[3]; [8],no selective suppression was observed
same,Rate of Cases where Glomerular Lesion was Suppressed,[3]; [8],75% (3/4)
same,Rate of Cases where tubulointerstitial Lesion was Suppressed,[3]; [8],75% (3/4)
same,Serum Creatinine level (mg/dl) on the 7th Day from Release of Obstruction,[3]; [8],2.2 ± 0.2 mg/dL
same,Weight of Kidney (g) on the 7th Day from Release of Obstruction,[3]; [8],2.73 ± 0.41 g
same,Suppressive Effect to Glomerular Lesion,[3]; [10],∘
same,Suppressive Effect to Lesion of Tubulointerstitial Tissue,[3]; [10],∘
"O=C1CCC(Cc2ccc(F)cc2)(C(=O)O)O1 (stereo not drawn) [(5-2), 2-(4-fluorobenzyl)-5-oxo-tetrahydrofuran-2-carboxylic Acid]",IC50,[1]; [4],0.01 µM
same,IC50,[2]; [6],0.1 µM
same,functional group (selective suppression of SPFC production by allo-MLC or LPS stimulation),[2],group II
"O=C1CCC(Cc2ccccc2)(C(=O)OCc2ccccc2)O1 (stereo not drawn) [(5-4), Benzyl 2-benzyl-5-oxo-tetrahydrofuran-2-carboxylate]",IC50,[1]; [4],1 µM
same,IC50,[2]; [6],0.01 µM
same,functional group (selective suppression of SPFC production by allo-MLC or LPS stimulation),[2],group I
"N#CC1(C(=O)OCc2ccccc2)CCC(=O)O1 (stereo not drawn) [(6-3), Benzyl 2-cyano-5-oxotetrahydrofuran-2-carboxylate]",IC50,[1]; [4],0.001 µM
same,IC50,[2]; [6],0.1 µM
same,functional group (selective suppression of SPFC production by allo-MLC or LPS stimulation),[2],group II
"O=C1OC(O)(C(=O)OCc2ccccc2)c2ccccc21 (stereo not drawn) [(7-1), Benzyl 1-hydroxy-3-oxo-1,3-dihydroisobenzofuran-1-carboxylate]",IC50,[1]; [4],1 µM
same,IC50,[2]; [6],0.1 µM
same,functional group (selective suppression of SPFC production by allo-MLC or LPS stimulation),[2],group I
"O=C1OC(F)(C(=O)OCc2ccccc2)c2ccccc21 (stereo not drawn) [(7-2), Benzyl 1-fluoro-3-oxo-1,3-dihydro-isobenzofuran-1-carboxylate]",IC50,[1]; [4],0.1 µM
same,IC50,[2]; [6],> 1 µM
same,functional group (selective suppression of SPFC production by allo-MLC or LPS stimulation),[2],group II
"O=C1OC(Oc2ccc(F)cc2)(C(=O)OCc2ccccc2)c2ccccc21 (stereo not drawn) [(7-5), Benzyl 1-(4-fluorophenoxy)-3-oxo-1,3-dihydroisobenzofuran-1-carboxylate]",IC50,[1]; [4],> 1 µM
same,IC50,[2]; [6],0.01 µM
same,functional group (selective suppression of SPFC production by allo-MLC or LPS stimulation),[2],group I
"O=C1OC(Oc2ccc(F)cc2)(C(=O)O)c2ccccc21 (stereo not drawn) [(7-6), 1-(4-fluorophenoxy)-3-oxo-1,3-dihydro-isobenzofuran-1-carboxylic Acid]",IC50,[1]; [4],0.01 µM
same,IC50,[2]; [6],> 1 µM
same,functional group (selective suppression of SPFC production by allo-MLC or LPS stimulation),[2],group II
O=C(O)C(=O)c1ccccc1C(=O)O [(7-7)],IC50,[1]; [4],0.01 µM
same,IC50,[2]; [6],> 1 µM
same,functional group (selective suppression of SPFC production by allo-MLC or LPS stimulation),[2],group II
"O=C1CC[C@@](Oc2ccc(F)cc2)(C(=O)O)O1 [Compound (1), (−)-2-(4-fluorophenoxy)-5-oxotetrahydrofuran-2-carboxylic Acid]",IC50,[1]; [4],> 1 µM
same,IC50,[2]; [6],0.01 µM
same,functional group (selective suppression of SPFC production by allo-MLC or LPS stimulation),[2],group I
